# Measurements published in patent publication US11992497B2 (priority 2021, dated 2024).
# Assays:
# rUGT1A9 = biological target: T1, rUGT1A9 (Homo sapiens, UniProt O60656); assay: Inhibition of CBG glucuronidation by Compound 1; type: biochemical; details: for CBG detected, Percent of control / CBG glucuronide formed, Percent of control: rUGT1A9; for CBG detected / CBG glucuronide formed: rUGT1A9, 4 min
# T1 sequence (O60656 26-530): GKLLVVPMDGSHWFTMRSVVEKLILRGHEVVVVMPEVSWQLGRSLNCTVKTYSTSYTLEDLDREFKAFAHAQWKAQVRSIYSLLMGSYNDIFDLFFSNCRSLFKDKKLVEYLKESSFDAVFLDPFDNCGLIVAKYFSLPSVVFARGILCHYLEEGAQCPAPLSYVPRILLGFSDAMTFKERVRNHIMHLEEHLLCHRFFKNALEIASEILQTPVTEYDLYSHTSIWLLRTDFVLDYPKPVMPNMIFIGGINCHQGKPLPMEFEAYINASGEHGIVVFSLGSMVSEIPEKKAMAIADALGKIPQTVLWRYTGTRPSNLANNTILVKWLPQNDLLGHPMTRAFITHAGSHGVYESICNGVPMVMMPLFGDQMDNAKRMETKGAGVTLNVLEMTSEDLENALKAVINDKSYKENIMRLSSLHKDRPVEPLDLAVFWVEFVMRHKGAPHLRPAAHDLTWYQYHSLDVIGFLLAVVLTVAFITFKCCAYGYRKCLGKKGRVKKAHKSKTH
# Procedure: The purpose of this experiment was to determine if Compound 1 can inhibit the glucuronidation of CBG, as both are substrates for the two major isoforms responsible for CBG glucuronidation.
# The ability of Compound 1 to inhibit the metabolism of CBG by UGT1A9 and UGT2B7 enzymes was investigated to ascertain the ICso values for direct inhibition. The incubation conditions (substrate concentration, incubation time and protein concentration) were determined in Part 2 of the protocol such that CBG metabolism remains near initial rate conditions (e.g., 20-30% substrate loss).
# Preliminary experiments were conducted in Part I of the protocol, first to establish the HPLC/MS/MS bioanalytical methods for CBG and CBG glucuronide. […] The second set of preliminary experiments (Part 2), as mentioned, were conducted to optimize the incubation conditions as described above. Incubations (at 37 C) contained Tris-HCl buffer (100 mM, pH 7.7), MgCl2 (10 mM), EDTA (1 mM, pH 7.4) and UDP-glucuronic acid (UDPGA, 10 mM). CBG was added to each incubation in DMSO such that the final percent of DMSO was 1% v/v, or less. Reactions were terminated by the addition of an equal volume of stop reagent, acetonitrile containing an internal standard. The samples were centrifuged (e.g., 920 RCF for 10 minutes at 10° C.), and the supernatant fractions were analyzed by LC-MS/MS to determine the amount of CBG remaining and formation of one metabolite (CBG glucuronide).
# To examine its ability to act as a direct inhibitor of the above listed enzymes, Compound 1 was be added to recombinant human UGT enzyme together with CBG. Reactions were initiated with UDPGA and were carried out in duplicate. For all assays, reactions were terminated by the addition of acetonitrile with or without 2% v/v formic acid, including the internal standard.
# Authentic metabolite reference standards were used for quantitation of the probe substrate metabolites and as internal standards. Based on the information obtained in the Part 2 experiments, the following table summarizes the experiments performed, assessing the inhibitory effects of Compound 1 was conducted as follows:
# The amounts of CBG present at the end of the incubation periods was determined. For inhibition to have occurred, the amounts of CBG present at the end of the incubation period needed to increase, and the amounts of glucuronide formed needed to decrease.
# [1] = tested on: lipopolysaccharide (LPS)-induced inflammation; assay: Rat LPS model, serum pro-inflammatory cytokines; type: in vivo, Sprague Dawley rats; details: oral, 4 days; 2 h after LPS
# Procedure: This assay was employed to determine the efficacies of CBG, compound 1, and compound 2 against lipopolysaccharide (LPS)-induced inflammation in Sprague Dawley rats.
# Eight- to 10-week-old male rats were treated with CBG, Compound 1, and Compound 2, or a positive control (cyclosporin A) for four days prior to treatment with LPS. Twenty-eight (28) Sprague Dawley male rats, 8-10 weeks old, were used for this study. Animals were randomized by weight into one of 7 treatment groups as shown in Table 10 below and treated for 4 days with either vehicle control (Groups 1 and 2), Cyclosporin A (Neoral) (Group 3), CBG at 30 mg/kg (Group 4), Compound 1 at 31.5 mg/kg (Group 5), Compound 2 at 32.7 mg/kg (Group 6) or CBG at 30 mg/kg (intraperitoneal/IP; Group 7). Groups 1-6 were dosed for 4 days by oral gavage; group 7 was dosed for 4 days by IP injection. After the 4th injection, Groups 2-7 received a single IP injection of LPS at 5 mg/kg to induce inflammation. Body weight was recorded every other day starting on the day of or day prior to the first day of treatment. A terminal body weight was recorded. General health and clinical signs were recorded once daily. Blood was collected to isolate immune cells at 2 hours after the LPS injection. […]
# Serum samples (N=82) were processed and shipped to Inotiv Boulder for analysis. […] The samples were analyzed for cytokine levels using the RECYTMAG-65K Luminex™ kit. […]
compound,measurement,setting,value
"CCCCCc1cc(O)c(C/C=C(\C)CCC=C(C)C)c(OC)c1 [Compound 1, (E)-2-(3,7-dimethylocta-2,6-dien-1-yl)-3-methoxy-5-pentylphenol]","CBG detected, Percent of control",rUGT1A9; 10 μM CBG + 0.01 μM Compound 1,109% of control
same,"CBG glucuronide formed, Percent of control",rUGT1A9; 10 μM CBG + 0.01 μM Compound 1,94.4% of control
same,CBG detected,rUGT1A9; 10 μM CBG + 0.01 μM Compound 1,1250 pmol
same,CBG glucuronide formed,rUGT1A9; 10 μM CBG + 0.01 μM Compound 1,350000 area ratio
same,"CBG detected, Percent of control",rUGT1A9; 10 μM CBG + 0.03 μM Compound 1,110% of control
same,"CBG glucuronide formed, Percent of control",rUGT1A9; 10 μM CBG + 0.03 μM Compound 1,97.1% of control
same,CBG detected,rUGT1A9; 10 μM CBG + 0.03 μM Compound 1,1250 pmol
same,CBG glucuronide formed,rUGT1A9; 10 μM CBG + 0.03 μM Compound 1,360000 area ratio
same,"CBG detected, Percent of control",rUGT1A9; 10 μM CBG + 0.1 μM Compound 1,112% of control
same,"CBG glucuronide formed, Percent of control",rUGT1A9; 10 μM CBG + 0.1 μM Compound 1,92.0% of control
same,CBG detected,rUGT1A9; 10 μM CBG + 0.1 μM Compound 1,1280 pmol
same,CBG glucuronide formed,rUGT1A9; 10 μM CBG + 0.1 μM Compound 1,341000 area ratio
same,"CBG detected, Percent of control",rUGT1A9; 10 μM CBG + 0.3 μM Compound 1,114% of control
same,"CBG glucuronide formed, Percent of control",rUGT1A9; 10 μM CBG + 0.3 μM Compound 1,94.4% of control
same,CBG detected,rUGT1A9; 10 μM CBG + 0.3 μM Compound 1,1300 pmol
same,CBG glucuronide formed,rUGT1A9; 10 μM CBG + 0.3 μM Compound 1,350000 area ratio
same,"CBG detected, Percent of control",rUGT1A9; 10 μM CBG + 1 μM Compound 1,106% of control
same,"CBG glucuronide formed, Percent of control",rUGT1A9; 10 μM CBG + 1 μM Compound 1,92.6% of control
same,CBG detected,rUGT1A9; 10 μM CBG + 1 μM Compound 1,1210 pmol
same,CBG glucuronide formed,rUGT1A9; 10 μM CBG + 1 μM Compound 1,343000 area ratio
same,"CBG detected, Percent of control",rUGT1A9; 10 μM CBG + 3 μM Compound 1,105% of control
same,"CBG glucuronide formed, Percent of control",rUGT1A9; 10 μM CBG + 3 μM Compound 1,93.6% of control
same,CBG detected,rUGT1A9; 10 μM CBG + 3 μM Compound 1,1200 pmol
same,CBG glucuronide formed,rUGT1A9; 10 μM CBG + 3 μM Compound 1,347000 area ratio
same,"CBG detected, Percent of control",rUGT1A9; 10 μM CBG + 10 μM Compound 1,99.8% of control
same,"CBG glucuronide formed, Percent of control",rUGT1A9; 10 μM CBG + 10 μM Compound 1,92.8% of control
same,CBG detected,rUGT1A9; 10 μM CBG + 10 μM Compound 1,1140 pmol
same,CBG glucuronide formed,rUGT1A9; 10 μM CBG + 10 μM Compound 1,344000 area ratio
same,inhibition of the conversion of CBG to a glucuronide (in words),"rUGT1A9; UGT1A9, 0.01-10 μM Compound 1",not an effective inhibitor
"CCCCCc1cc(OC)c(C/C=C(\C)CCC=C(C)C)c(OC)c1 [Compound 2, (E)-2-(3,7-dimethylocta-2,6-dien-1-yl)-1,3-dimethoxy-5-pentylbenzene]",reduction of IL-1B and IFNy relative to CBG (in words),[1],equal to or better than CBG
